Results as given in ChEMBL document CHEMBL1287719, “N⁶-Alkyladenosines: Synthesis and evaluation of in vitro anticancer activity” (Bioorg Med Chem, 2010).
Active and inactive are the calls of the source. The calls are words filed in the database; no cut-off is given here.

Key:
T-24 [1] = experiment: Inhibition of human T24 cell migration by wound healing assay; assay type: functional, cell-based
T-24 [2] = experiment: Inhibition of human T24 cells invasion on Matrigel after 24 hrs; assay type: functional, cell-based
T-24 [3] = experiment: Growth inhibition of human T24 cells assessed as reduction of cell count after trypsinization at 10 uM after 72 hrs by MTT assay; assay type: functional, cell-based
T-24 [4] = experiment: Cytotoxicity against human T24 cells assessed as inhibition of clones formation at 10 uM after 1 week by clonogenic assay; assay type: functional, cell-based
[5] = biological target: Matrix metalloproteinase-9 (Homo sapiens) (UniProt P14780); experiment: Induction of MMP9 activity in human T24 cells after 1 hr by zymography; assay type: cell-based; details: T-24
Caco-2 = experiment: Cytotoxicity against human Caco-2 cells at 10 uM after 72 hrs by MTT assay; assay type: functional, cell-based
J82 = experiment: Cytotoxicity against human J82 cells at 10 uM after 72 hrs by MTT assay; assay type: functional, cell-based
MDA-MB-231 = experiment: Cytotoxicity against human MDA-MB-231 cells at 10 uM after 72 hrs by MTT assay; assay type: functional, cell-based
T-24 [6] = experiment: Cytotoxicity against human T24 cells at 10 uM after 72 hrs by MTT assay; assay type: functional, cell-based

Chain of Matrix metalloproteinase-9 (Homo sapiens) (P14780 whole entry): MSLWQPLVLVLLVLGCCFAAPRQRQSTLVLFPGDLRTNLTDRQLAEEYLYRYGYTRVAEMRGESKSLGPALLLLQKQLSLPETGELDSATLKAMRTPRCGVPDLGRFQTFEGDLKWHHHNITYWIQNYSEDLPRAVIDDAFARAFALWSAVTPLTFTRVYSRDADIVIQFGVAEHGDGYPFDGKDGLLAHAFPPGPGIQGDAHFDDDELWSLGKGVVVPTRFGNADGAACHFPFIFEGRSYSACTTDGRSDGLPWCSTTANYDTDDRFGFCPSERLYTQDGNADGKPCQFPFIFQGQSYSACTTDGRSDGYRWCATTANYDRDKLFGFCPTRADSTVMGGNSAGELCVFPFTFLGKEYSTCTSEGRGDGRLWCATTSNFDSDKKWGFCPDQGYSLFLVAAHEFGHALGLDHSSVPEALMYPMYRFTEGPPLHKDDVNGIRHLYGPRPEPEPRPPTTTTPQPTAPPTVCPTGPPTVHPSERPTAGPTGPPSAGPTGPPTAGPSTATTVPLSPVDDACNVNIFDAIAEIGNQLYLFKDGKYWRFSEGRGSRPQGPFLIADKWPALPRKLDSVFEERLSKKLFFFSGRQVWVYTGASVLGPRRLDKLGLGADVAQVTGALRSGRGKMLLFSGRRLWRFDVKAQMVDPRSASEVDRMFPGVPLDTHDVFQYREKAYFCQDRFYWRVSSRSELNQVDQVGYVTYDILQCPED

| SMILES | Activity (T-24 [1]) | inhibition (T-24 [2]) | Activity (T-24 [3]) | Activity (T-24 [4]) | Activity [5] | Activity (Caco-2) | Activity (J82) | Activity (MDA-MB-231) | Activity (T-24 [6]) |
| --- | --- | --- | --- | --- | --- | --- | --- | --- | --- |
| OC[C@H]1O[C@@H](n2cnc3c(NCC4CCC4)ncnc32)[C@H](O)[C@@H]1O | inactive | inactive | Active | Active | inactive | Active | Active | Active | Active |
| C=CCNc1ncnc2c1ncn2[C@@H]1O[C@H](CO)[C@@H](O)[C@H]1O | inactive | inactive | Active | Active | inactive | Active | Active | Active | Active |
| CCCCNc1ncnc2c1ncn2[C@@H]1O[C@H](CO)[C@@H](O)[C@H]1O | inactive | inactive | Active | Active | inactive | Active | Active | Active | Active |
| CC(C)CCNc1ncnc2c1ncn2[C@@H]1O[C@H](CO)[C@@H](O)[C@H]1O | inactive | inactive | Active | Active | inactive | Active | Active | Active | Active |
| OC[C@H]1O[C@@H](n2cnc3c(NCc4ccccc4)ncnc32)[C@H](O)[C@@H]1O | inactive | inactive | Active | Active | inactive | Active | Active | Active | Active |
